Numbered stars: 1 amine (or outer) side, 2 acyl side, 3 side chain; on linkers, the order of the positions; unused ones are H or OH. Bridge positions count the residues as written; N and C are the ends. Square brackets hold non-standard residues; d marks the D form. Peptide text beside a SMILES is read from it. * marks the point of attachment. C20 diacid = O=C(O)CCCCCCCCCCCCCCCCCCC(=O)*; γGlu = O=C(O)[C@H](CCC(=O)[*:2])N[*:1]; Hyp = O=C(O)[C@@H]1C[C@@H](O)CN1; NMeI = CC[C@H](C)[C@H](NC)C(=O)O; Sar = CNCC(=O)O
Target: T1, hAMY3 receptor (Homo sapiens, UniProt O60896+P30988)
T1 sequence (P30988 25-474): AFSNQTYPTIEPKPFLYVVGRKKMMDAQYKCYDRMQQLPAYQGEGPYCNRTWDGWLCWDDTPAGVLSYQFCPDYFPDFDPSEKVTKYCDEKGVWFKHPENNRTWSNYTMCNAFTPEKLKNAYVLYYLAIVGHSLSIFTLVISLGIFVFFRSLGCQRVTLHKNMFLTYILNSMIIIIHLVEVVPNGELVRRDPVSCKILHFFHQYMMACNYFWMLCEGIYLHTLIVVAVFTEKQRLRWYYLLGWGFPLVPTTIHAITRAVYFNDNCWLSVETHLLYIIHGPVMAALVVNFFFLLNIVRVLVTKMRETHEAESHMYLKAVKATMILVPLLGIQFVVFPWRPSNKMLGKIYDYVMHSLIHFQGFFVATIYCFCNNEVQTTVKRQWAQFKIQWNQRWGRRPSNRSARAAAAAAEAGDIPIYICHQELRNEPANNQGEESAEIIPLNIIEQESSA
T1 sequence (O60896 24-148 partner): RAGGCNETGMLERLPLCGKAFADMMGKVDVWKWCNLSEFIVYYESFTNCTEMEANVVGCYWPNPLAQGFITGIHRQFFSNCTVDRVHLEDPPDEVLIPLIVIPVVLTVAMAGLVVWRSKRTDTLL
Assay: cAMP assay for in vitro receptor activation, hAMY3-R
Type: cell-based
Conditions: cAMP assay, hAMY3 receptor; read-out: hAMY3R EC50
Method in brief: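 Receptor activation was measured as cAMP accumulation in a monoclonal cell line stably overexpressing hAMY3. Stimulation with graded doses lasted 30 min at room temperature in the presence of 0.5 mM IBMX, with human amylin as positive control.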

Row | SMILES | EC50 [nM]
1 | CC[C@H](C)[C@H](NC(=O)[C@H](CCC(N)=O)NC(=O)[C@H](Cc1c[nH]cn1)NC(=O)[C@H](C)NC(=O)[C@H](CC(C)C)NC(=O)[C@H](CCCNC(=N)N)NC(=O)[C@H](CCC(N)=O)NC(=O)[C@@H](NC(=O)[C@@H](NC(=O)[C@@H]1CSSC[C@H](NC(=O)[C@H](CCCCN)NC(=O)CC[C@H](NC(=O)CCCCCCCCCCCCCCCCCCC(=O)O)C(=O)O)C(=O)N[C@@H](CC(N)=O)C(=O)N[C@@H](Cc2ccccc2)C(=O)N[C@@H](C)C(=O)N[C@@H]([C@@H](C)O)C(=O)N1)[C@@H](C)O)C(C)C)C(=O)N[C@@H](Cc1ccc(O)cc1)C(=O)N[C@@H](CCC(N)=O)C(=O)N[C@@H](Cc1ccccc1)C(=O)N[C@H](C(=O)N[C@@H](CC(=O)O)C(=O)N[C@@H](CCCCN)C(=O)N[C@@H](CC(=O)O)C(=O)N[C@@H](CCCCN)C(=O)N[C@@H](CC(=O)O)C(=O)N[C@@H](CC(N)=O)C(=O)N[C@H](C(=O)N[C@@H](C)C(=O)N1CCC[C@H]1C(=O)N1CCC[C@H]1C(=O)N[C@H](C(=O)N[C@@H](CCC(=O)O)C(=O)N[C@H](C(=O)NCC(=O)N[C@@H](CO)C(=O)N[C@@H](CC(N)=O)C(=O)NCC(=O)N1C[C@H](O)C[C@H]1C(N)=O)C(C)C)[C@@H](C)O)C(C)C)[C@@H](C)O [compound 68] ({C20 diacid-γGlu}-KCNFATCTVQRLAHQIYQFTDKDKDNVAPPTEVGSNG[Hyp]-NH2; disulfide 2-7) | 0.013
2 | CC[C@H](C)[C@@H](C(=O)N[C@@H](CC(C)C)C(=O)N[C@@H](CO)C(=O)N[C@@H](CO)C(=O)N[C@H](C(=O)N[C@@H](CCC(=O)O)C(=O)N[C@H](C(=O)NCC(=O)N[C@@H](CO)C(=O)N[C@@H](CC(N)=O)C(=O)N[C@H](C(=O)N1C[C@H](O)C[C@H]1C(N)=O)[C@@H](C)O)C(C)C)[C@@H](C)O)N(C)C(=O)[C@H](C)NC(=O)CN(C)C(=O)[C@H](Cc1ccccc1)NC(=O)[C@H](CO)NC(=O)[C@H](CO)NC(=O)[C@H](CCCNC(=N)N)NC(=O)[C@H](CCC(N)=O)NC(=O)[C@H](CC(C)C)NC(=O)[C@H](Cc1ccccc1)NC(=O)[C@H](Cc1c[nH]cn1)NC(=O)[C@H](C)NC(=O)[C@H](CC(C)C)NC(=O)[C@H](CCCNC(=N)N)NC(=O)[C@H](CCC(=O)O)NC(=O)[C@@H](NC(=O)[C@H](C)NC(=O)[C@@H]1CSSC[C@H](NC(=O)[C@H](CCCNC(=N)N)NC(=O)CC[C@H](NC(=O)CCCCCCCCCCCCCCCCCCC(=O)O)C(=O)O)C(=O)N[C@@H](CCC(N)=O)C(=O)N[C@@H]([C@@H](C)O)C(=O)N[C@@H](C)C(=O)N[C@@H]([C@@H](C)O)C(=O)N1)[C@@H](C)O [compound 80] ({C20 diacid-γGlu}-RCQTATCATERLAHFLQRSSF[Sar]A[NMeI]LSSTEVGSNT[Hyp]-NH2; disulfide 2-7) | 0.015
3 | CC[C@H](C)[C@H](NC(=O)[C@H](CCC(N)=O)NC(=O)[C@H](Cc1c[nH]cn1)NC(=O)[C@H](C)NC(=O)[C@H](CC(C)C)NC(=O)[C@H](CCCNC(=N)N)NC(=O)[C@H](CCC(N)=O)NC(=O)[C@@H](NC(=O)[C@@H](NC(=O)[C@@H]1CSSC[C@H](NC(=O)[C@H](CCCCN)NC(=O)CC[C@H](NC(=O)CCCCCCCCCCCCCCCCCCC(=O)O)C(=O)O)C(=O)N[C@@H](CC(N)=O)C(=O)N[C@@H]([C@@H](C)O)C(=O)N[C@@H](C)C(=O)N[C@@H]([C@@H](C)O)C(=O)N1)[C@@H](C)O)C(C)C)C(=O)N[C@@H](Cc1ccc(O)cc1)C(=O)N[C@@H](CCC(N)=O)C(=O)N[C@@H](Cc1ccccc1)C(=O)N[C@H](C(=O)N[C@@H](CC(=O)O)C(=O)N[C@@H](CCCCN)C(=O)N[C@@H](CC(N)=O)C(=O)N[C@@H](CCCCN)C(=O)N[C@@H](CC(=O)O)C(=O)N[C@@H](CC(N)=O)C(=O)N[C@H](C(=O)N[C@@H](C)C(=O)N1CCC[C@H]1C(=O)N1CCC[C@H]1C(=O)N[C@H](C(=O)N[C@@H](CC(N)=O)C(=O)N[C@H](C(=O)NCC(=O)N[C@@H](CO)C(=O)N[C@@H](CC(N)=O)C(=O)NCC(=O)N1C[C@H](O)C[C@H]1C(N)=O)C(C)C)[C@@H](C)O)C(C)C)[C@@H](C)O [compound 91] ({C20 diacid-γGlu}-KCNTATCTVQRLAHQIYQFTDKNKDNVAPPTNVGSNG[Hyp]-NH2; disulfide 2-7) | 0.016
4 | CC[C@H](C)[C@H](NC(=O)[C@H](CCC(N)=O)NC(=O)[C@H](Cc1c[nH]cn1)NC(=O)[C@H](C)NC(=O)[C@H](CC(C)C)NC(=O)[C@H](CCCNC(=N)N)NC(=O)[C@H](CCC(N)=O)NC(=O)[C@@H](NC(=O)[C@@H](NC(=O)[C@@H]1CSSC[C@H](NC(=O)[C@@H](N)CCCCN)C(=O)N[C@@H](CC(N)=O)C(=O)N[C@@H](Cc2ccccc2)C(=O)N[C@@H](C)C(=O)N[C@@H]([C@@H](C)O)C(=O)N1)[C@@H](C)O)C(C)C)C(=O)N[C@@H](Cc1ccc(O)cc1)C(=O)N[C@@H](CCC(N)=O)C(=O)N[C@@H](Cc1ccccc1)C(=O)N[C@H](C(=O)N[C@@H](CC(=O)O)C(=O)N[C@@H](CCCCN)C(=O)N[C@@H](CC(=O)O)C(=O)N[C@@H](CCCCN)C(=O)N[C@@H](CC(=O)O)C(=O)N[C@@H](CC(N)=O)C(=O)N[C@H](C(=O)N[C@@H](C)C(=O)N1CCC[C@H]1C(=O)N[C@@H](CCCNC(=N)N)C(=O)N[C@H](C(=O)N[C@@H](CCC(=O)O)C(=O)N[C@H](C(=O)NCC(=O)N[C@@H](CO)C(=O)N[C@@H](CC(N)=O)C(=O)NCC(=O)N1C[C@H](O)C[C@H]1C(N)=O)C(C)C)[C@@H](C)O)C(C)C)[C@@H](C)O [compound 17] (H-KCNFATCTVQRLAHQIYQFTDKDKDNVAPRTEVGSNG[Hyp]-NH2; disulfide 2-7; N-terminus assumed) | 0.008

Results, then the compound that gave them:

Row | EC50 [nM] | SMILES
5 | 0.063 | CC[C@H](C)[C@H](NC(=O)[C@H](CCC(N)=O)NC(=O)[C@H](Cc1c[nH]cn1)NC(=O)[C@H](C)NC(=O)[C@H](CC(C)C)NC(=O)[C@H](CCCNC(=N)N)NC(=O)[C@H](CCC(N)=O)NC(=O)[C@@H](NC(=O)[C@@H](NC(=O)[C@@H]1CSSC[C@H](NC(=O)CN)C(=O)N[C@@H](CCCNC(=N)N)C(=O)N[C@@H](Cc2ccccc2)C(=O)NCC(=O)N[C@@H]([C@@H](C)O)C(=O)N1)[C@@H](C)O)C(C)C)C(=O)N[C@@H](Cc1ccc(O)cc1)C(=O)N[C@@H](CCC(N)=O)C(=O)N[C@@H](Cc1ccccc1)C(=O)N[C@H](C(=O)N[C@@H](CC(=O)O)C(=O)N[C@@H](CCCCN)C(=O)N[C@@H](CC(=O)O)C(=O)N[C@@H](CCCCN)C(=O)N[C@@H](CC(=O)O)C(=O)N[C@@H](CC(N)=O)C(=O)N[C@H](C(=O)N[C@@H](C)C(=O)N1CCC[C@H]1C(=O)N[C@@H](CCCNC(=N)N)C(=O)N[C@@H](CO)C(=O)N[C@@H](CCCCN)C(=O)N[C@H](C(=O)N[C@@H](CO)C(=O)N1CCC[C@H]1C(=O)N[C@@H](CCC(N)=O)C(=O)NCC(=O)N1C[C@H](O)C[C@H]1C(N)=O)[C@@H](C)CC)C(C)C)[C@@H](C)O [compound 169] (H-GCRFGTCTVQRLAHQIYQFTDKDKDNVAPRSKISPQG[Hyp]-NH2; disulfide 2-7; N-terminus assumed)
6 | 0.048 | CC[C@H](C)[C@H](NC(=O)[C@H](CCCCN)NC(=O)[C@@H](NC(=O)[C@H](CCCNC(=N)N)NC(=O)[C@@H]1CCCN1C(=O)[C@H](C)NC(=O)[C@@H](NC(=O)[C@H](CC(N)=O)NC(=O)[C@H](CC(=O)O)NC(=O)[C@H](CCCCN)NC(=O)[C@H](CC(=O)O)NC(=O)[C@H](CCCCN)NC(=O)[C@H](CC(=O)O)NC(=O)[C@@H](NC(=O)[C@H](Cc1ccccc1)NC(=O)[C@H](CCC(N)=O)NC(=O)[C@H](Cc1ccc(O)cc1)NC(=O)[C@H](CC(C)C)NC(=O)[C@H](Cc1ccccc1)NC(=O)[C@H](Cc1c[nH]cn1)NC(=O)[C@H](C)NC(=O)[C@H](CC(C)C)NC(=O)[C@H](CCCNC(=N)N)NC(=O)[C@H](CCC(N)=O)NC(=O)[C@@H](NC(=O)[C@@H](NC(=O)[C@@H]1CSSC[C@H](NC(=O)CNC(=O)CC[C@H](NC(=O)CCCCCCCCCCCCCCCCCCC(=O)O)C(=O)O)C(=O)N[C@@H](CCCNC(=N)N)C(=O)N[C@@H](Cc2ccccc2)C(=O)NCC(=O)N[C@@H]([C@@H](C)O)C(=O)N1)[C@@H](C)O)C(C)C)[C@@H](C)O)C(C)C)[C@@H](C)O)C(=O)NCC(=O)N1CCC[C@H]1C(=O)N[C@@H](CCC(N)=O)C(=O)NCC(=O)N[C@@H](Cc1ccc(O)cc1)C(N)=O [compound 390] ({C20 diacid-γGlu}-GCRFGTCTVQRLAHFLYQFTDKDKDNVAPRTKIGPQGY-NH2; disulfide 2-7)
7 | 0.017 | CC(C)C[C@H](NC(=O)[C@H](CCCNC(=N)N)NC(=O)[C@H](CCC(N)=O)NC(=O)[C@@H](NC(=O)[C@@H](NC(=O)[C@@H]1CSSC[C@H](NC(=O)CN)C(=O)N[C@@H](CCCNC(=N)N)C(=O)N[C@@H](Cc2ccccc2)C(=O)NCC(=O)N[C@@H]([C@@H](C)O)C(=O)N1)[C@@H](C)O)C(C)C)C(=O)N[C@@H](C)C(=O)N[C@@H](Cc1c[nH]cn1)C(=O)N[C@@H](Cc1ccccc1)C(=O)N[C@@H](CC(C)C)C(=O)N[C@@H](Cc1ccc(O)cc1)C(=O)N[C@@H](CCC(N)=O)C(=O)N[C@@H](Cc1ccccc1)C(=O)N[C@H](C(=O)N[C@@H](CC(=O)O)C(=O)N[C@@H](CCCCN)C(=O)N[C@@H](CC(=O)O)C(=O)N[C@@H](CCCCN)C(=O)N[C@@H](CC(=O)O)C(=O)N[C@@H](CC(N)=O)C(=O)N[C@H](C(=O)N[C@@H](C)C(=O)N1CCC[C@H]1C(=O)N[C@@H](CCCNC(=N)N)C(=O)N[C@H](C(=O)N[C@@H](CCCCN)C(=O)N[C@H](C(=O)NCC(=O)N1CCC[C@H]1C(=O)N[C@@H](CCC(N)=O)C(=O)NCC(=O)N[C@@H](Cc1ccc(O)cc1)C(N)=O)C(C)C)[C@@H](C)O)C(C)C)[C@@H](C)O [compound 369] (H-GCRFGTCTVQRLAHFLYQFTDKDKDNVAPRTKVGPQGY-NH2; disulfide 2-7; N-terminus assumed)

From US12139520B2 (priority 2020, dated 2024)
